Read-outs that look alike come from different tables or passages of the source.
Experiments:
[1] = Uterine weight in ovariectomized rats; type: in vivo, rat; details: OVX rats; for uterine weight compared with control group: 200 μg/kg sc; for Uterine Weight (g, ± SEM): 200 μg/kg sc in corn oil, 2 hours prior to MCAO, harvested 24 hours after reperfusion
Method: Female, Sprague rats (200-250 g, Charles River, Wilmington, Mass.) were acclimatized for three days prior to surgery. Bilateral ovariectomy (OVX) was performed two weeks prior to middle cerebral artery occlusion (MCAO). Animals were anesthetized by intraperitoneal injection of ketamine (60 mg/kg) and xylazine (10 mg/kg). Rectal temperature was maintained at 37.5±0.5° C. during procedure. The middle cerebral artery was occluded for one hour then suture was withdrawn for reperfusion. […] Animals were decapitated 24 hours after reperfusion. Uteruses were harvested, blotted, and weighed for comparison among treatment groups.

[2] = In vitro reduction of estrone-quinol to estrone by reducing agents in phosphate buffer (LC/MS); type: in vitro ADME; details: for extent of reductive conversion: pH 7.5, 37° C.
Method: Estrone-quinol (0.1 mM) was incubated at 37° C. in 0.1 M phosphate buffer pH 7.5 in the presence of 1 mM of NADH, NADPH, sodium ascorbate, and glutathione (GSH). Aliquots (500 μl) were taken after 60 minutes of incubation, and extracted with ethyl acetate (3×0.5 mL) and the mixture vortexed for 1 minute and centrifuged at […] for 5 minutes. After removing the solvent, the residue of the combined organic extracts was analyzed for their estrone content by LC/MS/MS.
Mass spectra were recorded on a quadrupole ion-trap instrument (LCQ, ThermoFinnigan) using positive-ion APCI as the method of ionization. […] Compound identification was based on retention time (tR), APCI mass spectra, MS/MS and MS^3 with authentic compounds as references. […].
At incremental time points, […] aliquots were removed into ice-cooled centrifuge tubes, and 50 μl of glacial acetic acid was added. After immediate extraction with ethyl acetate (2×500 μl), the organic layer was evaporated under nitrogen stream at room temperature. Reconstitution of the samples with the LC mobile phase was followed by LC/MS analyses. For control, no reducing agents were used.
[…]. […] Kinetic analysis of the microsomal metabolism was done by nonlinear curve-fitting (Scientist for Windows; MicroMath, Inc., Salt Lake City, Utah) presuming consecutive first-order processes in the cascade of estrone-quinol→estrone→estrone-metabolites.

[3] = Cerebral microdialysis, reduction of estrone-quinol to estrone in vivo; set-up: species or system rat; details: probe perfused at 1 μl/min with 10 picomole/μL in aCSF, ventral hippocampus
Source text: Male, Sprague rats (300-400 g) were anesthetized, placed in a stereotaxic instrument, and a guide cannula (CMA/12 guide cannula) was implanted into the ventral hippocampus under aseptic conditions. The guide cannula was fixed to the skull, together with stainless steel screws attached into additional two holes, with dental acrylics. Before starting the experiment (usually 5-7 days after the implantation of the guide cannula implantation) the rats were placed in a containment unit (BAS, Inc.) for at least 30 minutes. Then a microdialysis probe (CMA/12 polycarbonate membrane diameter 0.5 mm; membrane length 4 mm; molecular cut off: 5,000 Da) was inserted into the ventral hippocampus through the guide cannula. After insertion, the microdialysis probe was perfused with an artificial cerebrospinal fluid (aCSF) at a flow rate of 1 μl/min. maintained by a microperfusion pump (BAS BeeStinger) attached to the probe via polyethylene tubing and a liquid swivel. After equilibration for 50 minutes, an automatic refrigerated fraction collector (BAS HoneyComb) was used for continuous sampling of the probe efflux for 24 hours in 60 minute fractions collected into 300-μl glass vials (control). […]

[4] = molecular target: T1, recombinant estrogen receptor β (ERβ) (Homo sapiens, UniProt Q92731); test: Competition binding assay, […] EFC Estrogen Chemiluminescence Assay
T1 construct: purchased Panvera, Madison, Wis
Method: (§1) Competition binding assays were performed using an enzyme fragment complementation (EFC) method described in the […] EFC Estrogen Chemiluminescence Assay kit (Fremont, Calif.). […] The enzyme acceptor was then added for another 1.5 hours after which chemiluminescence substrate was added for another hour. Relative luminescences were determined using a Biotek FL600 plate reader (Biotek Instruments, Winooski, Vt.).

[5] = molecular target: T2, recombinant estrogen receptor α (ERα) (Homo sapiens, UniProt P03372); test: as above
T2 construct: purchased Panvera, Madison, Wis
T2 sequence (P03372 1-595): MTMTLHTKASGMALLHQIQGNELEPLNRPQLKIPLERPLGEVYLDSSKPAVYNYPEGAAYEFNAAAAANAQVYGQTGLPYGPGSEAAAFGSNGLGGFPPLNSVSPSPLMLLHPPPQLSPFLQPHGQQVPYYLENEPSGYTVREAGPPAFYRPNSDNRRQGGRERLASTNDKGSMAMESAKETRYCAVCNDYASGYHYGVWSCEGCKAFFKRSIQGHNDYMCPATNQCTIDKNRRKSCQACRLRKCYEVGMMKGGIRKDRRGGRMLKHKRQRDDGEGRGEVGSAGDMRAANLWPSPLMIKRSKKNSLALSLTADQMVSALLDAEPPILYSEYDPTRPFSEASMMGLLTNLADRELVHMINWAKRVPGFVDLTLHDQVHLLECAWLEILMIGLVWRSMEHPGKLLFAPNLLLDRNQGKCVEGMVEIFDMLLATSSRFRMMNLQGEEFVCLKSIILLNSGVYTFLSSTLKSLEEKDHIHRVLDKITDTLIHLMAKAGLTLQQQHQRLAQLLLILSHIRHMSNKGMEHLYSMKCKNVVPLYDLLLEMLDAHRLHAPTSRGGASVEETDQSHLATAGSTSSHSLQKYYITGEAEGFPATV
Method: as §1

T1 sequence (Q92731 whole entry): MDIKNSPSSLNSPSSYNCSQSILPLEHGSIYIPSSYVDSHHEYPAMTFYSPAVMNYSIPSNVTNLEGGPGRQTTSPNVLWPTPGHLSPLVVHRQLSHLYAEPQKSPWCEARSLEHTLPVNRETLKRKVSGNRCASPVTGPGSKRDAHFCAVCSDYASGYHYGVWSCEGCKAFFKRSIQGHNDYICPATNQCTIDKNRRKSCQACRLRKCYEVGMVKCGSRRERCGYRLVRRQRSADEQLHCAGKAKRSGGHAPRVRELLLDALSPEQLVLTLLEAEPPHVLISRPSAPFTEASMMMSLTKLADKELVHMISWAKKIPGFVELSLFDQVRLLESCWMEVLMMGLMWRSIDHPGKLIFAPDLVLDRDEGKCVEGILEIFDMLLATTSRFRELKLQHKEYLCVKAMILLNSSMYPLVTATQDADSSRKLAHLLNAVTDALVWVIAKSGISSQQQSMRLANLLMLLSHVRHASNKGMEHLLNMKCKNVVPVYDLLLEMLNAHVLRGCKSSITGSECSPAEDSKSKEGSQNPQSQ

| SMILES | uterine weight compared with control group [1] | Uterine Weight (g, ± SEM) [1] [g] | initial rate of second-order reaction for the reduction by NADPH ([2]; 10-fold excess of NADPH, microsome-free buffer solution, identical incubation conditions) [nmol/min] | extent of reductive conversion ([2]; Example 4, 1.0 mM NADH) | extent of reductive conversion ([2]; Example 4, 1.0 mM NADPH) | flux of entry into the brain [3] | IC50 [4] [µM] | IC50 [5] [µM] | IC50 ([4]; ERβ, read-out: IC50) [µM] | IC50 ([5]; ERα, read-out: IC50) [µM] |
| --- | --- | --- | --- | --- | --- | --- | --- | --- | --- | --- |
| C[C@]12CC[C@@H]3c4ccc(O)cc4CC[C@H]3[C@@H]1CCC2=O [E1, estrone, reference compound] | doubled | 0.222 ± 0.022 | – | – | – | – | – | – | – | – |
| C[C@]12CC[C@H]3[C@@H](CCC4=CC(=O)C=C[C@@]43O)[C@@H]1CCC2=O [E1-quinol, 10β-hydroxyestra-1,4-diene-3,17-dione] | no difference | 0.115 ± 0.010 | 0.62 ± 0.03 | significant extent of reductive conversion | significant extent of reductive conversion | about 2 picomole/minute | > 10 | > 10 | – | – |
| C[C@]12CC[C@H]3[C@@H](CCC4=CC(=O)C=C[C@@]43O)[C@@H]1CC[C@@H]2O [E2-quinol] | – | – | – | – | – | – | – | – | > 10 | > 10 |

Reference: patent US7300926B2, “Steroidal quinols and their use for estrogen replacement therapy” (University of Florida Research Foundation, Inc., priority 2002, dated 2007)
